Ends that are not written are not given here. FAM = 5(6)-carboxyfluorescein; Ahx = NCCCCCC(=O)O
How the values were obtained:
MEMs in MCF-7 tumors = assay: Free peptide homing and immunofluorescence in the orthotopic MCF-7 breast tumor model; format: in vivo, mouse; details: 30 nmoles i.v., 2 h
Description: A, Thirty nmoles of FAM-UNO were injected intravenously in mice bearing MCF-7 tumors, 21 days after orthotopic inoculation of 5×10^6 cells. […] All images were taken with the same imaging conditions. Scale bar: 100 μm and 50 μm (blow up). […] The tumor tissue from panel A was analyzed by immunofluorescence using rabbit anti-FAM (green), rat anti-HLA ABC (red) and counterstained with DAPI (blue). Scale bar: 50 μm. C, MCF-7 tumors are leaky. Tumor sections were immunostained for endogenous mouse IgG and counterstained with DAPI using the same staining and imaging conditions as in FIG. 17. Scale bar: 100 μm. Representative images from n=3 mice.
Mice were used for homing studies two weeks later.

[1] = test system: MRC1/CD206-expressing tumor-associated macrophages (MEMs) in 4T1 tumors; assay: Free peptide homing and immunofluorescence in the orthotopic 4T1 breast tumor model; details: 30 nmoles i.v.
Description: (SEQ ID NO: 5) control peptide were injected intravenously into 4T1 tumor-bearing mice and allowed to circulate for 2 h. Mice were then sacrificed and tumor and tissues were analyzed by immunofluorescence using rabbit anti-FAM (green) and rat anti-CD206 or rat anti-TIE2 (red) antibodies, and counterstained with DAPI. All images were taken under the same imaging conditions. FAM-UNO accumulated in macrophages within tumors and lymph nodes positive for CD206 staining (A, B, C) and TIE2 (D, and H: Blow up of D). […] To ascertain that anti-CD206 is capable of detecting CD206 in the liver, an image was acquired with longer exposure time from an uninjected animal (FIG. 25). […] Green: FAM-peptide; Red: CD206 or TIE2, Blue: DAPI. Representative fields from multiple sections prepared from at least 3 tumors (n≥3 mice) are shown.
Tumor models were induced according to protocols approved by the Estonian Ministry of Agriculture, Committee of Animal Experimentation (permit #48). For the 4T1 breast model, 8-week old female Balb/c mice were injected in the mammary fat pad with 10^6 cells dispersed in 50 μL of PBS. For homing studies, mice were used 10 days later, when the tumor had reached ˜150 mm^3. For MCF-7 breast model, 8-week old female nude mice were implanted with an estrogen pellet, and 1 week later inoculated with 5×10^6 MCF-7 cells in 100 μL of cold Matrigel (BD Biosciences, CA, USA). Mice were used for homing studies three weeks later (tumor volume˜150 mm^3). For the metastatic gastric carcinoma, 10^6 MKN45-P cells in PBS were injected intraperitoneally in 8-week old female nude mice. Mice were used for homing studies two weeks later. For the metastatic melanoma model, 2×10^5 B16F10 cells were injected intravenously in 100 μL of PBS in C57 BL6 mice. The mice were used for homing studies 10 days after. For the angiogenic glioblastoma model, WT-GBM 24, 7×10^5 cells were stereotactically injected in the right striatum of Fox/Nu mice 2 mm lateral and posterior of bregma of 2.5 mm deep. The mice were used for homing studies 6-7 days after the injection.
For free peptide homing studies, mice were injected intravenously with 30 nmoles of FAM-peptides in 100 μL of PBS. For nanoparticle homing studies-FAM-UNO—NP-PTX-, mice were injected intravenously in mice bearing MCF-7 breast tumors with 1 mg of Polymer in 100 μL pf PBS and allowed to circulate for 6 h. For tissue collection, the mice were anesthetized and the tissues collected and immediately placed in 4% cold PFA and left overnight at 4-C. Tissues were washed with PBS for 2 h at room temperature and cryoprotected with sucrose 15% at 4-C overnight and then in sucrose 30% at 4·C overnight. The tumor and the control organs were placed together in the same block with OCT compound (Leica Biosystems, Wetzlar, Germany), snap-frozen in isopentane, and sectioned at 10 μm. FAM was detected using Rabbit anti-FITC (Invitrogen, CA, USA. Catalog # A-889) at a dilution of 1/100 and using Alexa Fluor-546 anti-rabbit antibody (Invitrogen, Ca, USA. Catalog # A-11035) at a dilution of 1/200. CD31 was detected using rat anti-mouse CD31 (BD Biosciences, CA, USA. Catalog #: 553370), TIE2 was detected using rat anti-mouse TIE2 (Biolegend, CA, USA. Catalog #124001), CD209 was detected using rat anti-mouse CD209 (Biolegend, CA, USA. Catalog #147802), HLA ABC was detected using rat anti Human HLA ABC (Bio-Rad, CA, USA. Product code MCA485G), and CD206 was detected using ratanti-mouse CD206 (Bio-Rad, CA, USA. Product code MCA2235GA); using 1/100 primary antibody dilution and Alexa Fluor-647 anti-Rat antibody (Invitrogen, CA, USA. Catalog #21247) at 1/200 dilution. To quantify FAM signal from confocal images, the green channel of images taken by using 20× magnification objective was opened with ImageJ, converted to 8-bit grayscale and the integrated pixel intensity was measured. Different regions of tumors from three different mice were used.

Substance | accumulation in MEMs (MEMs in MCF-7 tumors) | targeting of tumor cells of human origin (HLA ABC+) (MEMs in MCF-7 tumors) | time the signal remained readily detectable in MEMs after administration [1] | accumulation in liver, heart, lungs and spleen ([1]; 2 h) | internalization in MEMs (high resolution confocal microscopy) ([1]; 2 h) | overlap with CD209 in sections from 4T1 tumors ([1]; 2 h) | accumulation in MEMs / tumor homing ([1]; 2 h circulation) | cells positive for FAM-UNO that were also positive for CD206, in tumors ([1]; 2 h circulation) [%] | FAM fluorescence in the kidneys ([1]; 2 h time point)
FAM-UNO: FAM-labeled UNO peptide CSPGAKVRC (SEQ ID NO: 1); 5(6)-carboxyfluorescein with 6-aminohexanoic acid spacer at the N-terminus ({FAM-Ahx}-CSPGAKVRC; cysteine pairing not given here) | selectively accumulated in MEMs | did not target the tumor cells of human origin | up to 12 h | low | internalized in MEMs | only a moderate overlap with CD209 | accumulated in MEMs in tumors and in sentinel lymph nodes | 96 | FAM-fluorescence was observed in the kidneys
FAM-CSPGAK: FAM-labeled linear CSPGAK (SEQ ID NO: 6) (not fully specified; FAM label) |  |  |  |  |  |  | accumulated in MEMs in orthotopic 4T1 breast tumor-bearing mice at levels comparable to FAM-UNO |  | 

Source: patent publication US11571484B2, “Compositions that target tumor-associated macrophages and methods of use therefor” (Sanford Burnham Prebys Medical Discovery Institute, priority 2017, dated 2023)
